Values joined by “and” are separate entries in the source; they are usually repeats but may differ in a detail not shown here. Identical values can stand only once.
Tested on: B6C3F1/J mice
Assay: Large-scale lifespan screen of compounds in long-lived B6C3F1 hybrid mice
Format: in vivo, mouse
Details: for extension of maximal lifespan: maximal lifespan = average lifespan of the 20% longest-lived mice; for extension of mean lifespan: 15 per compound, dosed from 5 months of age throughout lifespan, relative to untreated controls
Source text: The majority of compounds included drugs currently used in medicine and drug-like molecules, with wide range of targets that span the entire pharmacological space.
The compounds were clustered into 62 drug classes based on their mechanism of action or cellular target. Screening a wide range of known compounds could potentially resolve two challenges. First, to analyze how distinct drug classes with common mechanisms of action affect aging in mammals. Second, to determine with no bias or predispositions which of the current pharmacological drugs can extend lifespan.
In this study, the inventors used a strain of long-lived B6C3F1 hybrid mice (C57BL/6J♀×C3H/HeJ♂) with well-characterized aging dynamics (Lipman 1999, Turturro, 1999). […] Each treatment group included 15 female mice per compound, while 335 females were used as controls. Three additional control groups included 60 female mice on dietary restriction (60% ad libitum), 60 female mice on a purified diet, and 60 male mice as gender control. Each compound treatment and diet intervention were administered to mice starting at 5 months of age, and continued throughout their lifespan. The primary endpoint was mouse mortality, from which we calculated mean lifespan, maximal lifespan, and the onset of morbidity for each experimental group. To calculate the statistical significance, the mean lifespan, maximal lifespan, and the onset of morbidity for each individual compound and drug class were compared to the lifespan distribution of untreated mice. […]

[1] = B6C3F1/J mice, compared to the lifespan distribution of untreated mice
[2] = female B6C3F1/J mice, dosed from 5 months of age, relative to controls

C[C@]12CC[C@@H]3c4ccc(O)cc4CC[C@H]3[C@@H]1CC[C@@H]2O [17β-estradiol]
effect on mean and/or maximal lifespan (in words) [1]: significantly shortened | reduction of mean lifespan [2]: 21%

CCOC(=O)C(C)(C)Oc1ccc(Cl)cc1 [Clofibrate]
extension of maximal lifespan [2]: 20.9% | extension of maximal lifespan (female B6C3F1/J mice, dosed from 5 months of age, relative to controls, listed as clofibrate): 21%

CC(=O)[O-].CC(=O)[O-].[Mg+2] [Magnesium Acetate]
effect on mean and/or maximal lifespan (in words) (mouse, in vivo): significantly extended

[Cl-].[Cl-].[Mg+2] [Magnesium Chloride]
effect on mean and/or maximal lifespan (in words) (mouse, in vivo): significantly extended

[Mg+2].[OH-].[OH-] [Magnesium Hydroxide]
effect on mean and/or maximal lifespan (in words) (mouse, in vivo): significantly extended

O=C(O)CN(CCN(CC(=O)O)CC(=O)O)CCN(CC(=O)O)CC(=O)O [Pentetic acid, diethylene triamene pentaacetic acid]
effect on mean and/or maximal lifespan (in words) [1]: significantly extended | extension of mean lifespan (female B6C3F1/J mice): 16.1% | extension of mean lifespan (female B6C3F1/J mice, listed as pentetic acid): 16%

C[C@@H]1O[C@@H](O[C@@H]2C=C3CC[C@@H]4[C@H](CC[C@]5(C)[C@@H](c6ccc(=O)oc6)CC[C@]45O)[C@@]3(C)CC2)[C@H](O)[C@H](O)[C@H]1O [Proscillaridin A]
effect on mean and/or maximal lifespan (in words) [1]: significantly extended | extension of mean lifespan (female B6C3F1/J mice): 16% and 16.4% | extension of onset of morbidity [2]: 40% and 39.9%

Inulin
effect on mean and/or maximal lifespan (in words) [1]: significantly extended | extension of mean lifespan (female B6C3F1/J mice): 16% | extension of maximal lifespan [2]: 18%
